According to patent publication US4487716A, “N-(1-Carboxy-3-phenylpropyl)-dipeptides” (American Home Products Corporation, priority 1982, dated 1984):

Legend:
[1] = system: male spontaneously hypertensive rats; assay: Systolic blood pressure in male spontaneously hypertensive rats after oral administration; type: in vivo; conditions: groups of four rats; for Blood Pressure: systolic; for effect on systolic blood pressure (in words): oral administration
Description: Blood pressures were read prior to drug administration and at 1.5, 4 and 24 hours thereafter using a Decker Caudal Plethysmograph.

[2] = target: T1, angiotensin converting enzyme (Oryctolagus cuniculus, UniProt P12822); assay: Inhibition of hippuryl-L-histidyl-L-leucine hydrolysis by angiotensin converting enzyme; type: biochemical; conditions: rabbit lung ACE, substrate HHL 5 mM, 37° C., 30 min
T1 construct: A crude angiotensin converting enzyme supernatant is obtained by blending 1 gm. of rabbit lung acetone powder; tissue PelFreez Biologicals; host or cells: rabbit lung acetone powder
T1 sequence (P12822 34-1310): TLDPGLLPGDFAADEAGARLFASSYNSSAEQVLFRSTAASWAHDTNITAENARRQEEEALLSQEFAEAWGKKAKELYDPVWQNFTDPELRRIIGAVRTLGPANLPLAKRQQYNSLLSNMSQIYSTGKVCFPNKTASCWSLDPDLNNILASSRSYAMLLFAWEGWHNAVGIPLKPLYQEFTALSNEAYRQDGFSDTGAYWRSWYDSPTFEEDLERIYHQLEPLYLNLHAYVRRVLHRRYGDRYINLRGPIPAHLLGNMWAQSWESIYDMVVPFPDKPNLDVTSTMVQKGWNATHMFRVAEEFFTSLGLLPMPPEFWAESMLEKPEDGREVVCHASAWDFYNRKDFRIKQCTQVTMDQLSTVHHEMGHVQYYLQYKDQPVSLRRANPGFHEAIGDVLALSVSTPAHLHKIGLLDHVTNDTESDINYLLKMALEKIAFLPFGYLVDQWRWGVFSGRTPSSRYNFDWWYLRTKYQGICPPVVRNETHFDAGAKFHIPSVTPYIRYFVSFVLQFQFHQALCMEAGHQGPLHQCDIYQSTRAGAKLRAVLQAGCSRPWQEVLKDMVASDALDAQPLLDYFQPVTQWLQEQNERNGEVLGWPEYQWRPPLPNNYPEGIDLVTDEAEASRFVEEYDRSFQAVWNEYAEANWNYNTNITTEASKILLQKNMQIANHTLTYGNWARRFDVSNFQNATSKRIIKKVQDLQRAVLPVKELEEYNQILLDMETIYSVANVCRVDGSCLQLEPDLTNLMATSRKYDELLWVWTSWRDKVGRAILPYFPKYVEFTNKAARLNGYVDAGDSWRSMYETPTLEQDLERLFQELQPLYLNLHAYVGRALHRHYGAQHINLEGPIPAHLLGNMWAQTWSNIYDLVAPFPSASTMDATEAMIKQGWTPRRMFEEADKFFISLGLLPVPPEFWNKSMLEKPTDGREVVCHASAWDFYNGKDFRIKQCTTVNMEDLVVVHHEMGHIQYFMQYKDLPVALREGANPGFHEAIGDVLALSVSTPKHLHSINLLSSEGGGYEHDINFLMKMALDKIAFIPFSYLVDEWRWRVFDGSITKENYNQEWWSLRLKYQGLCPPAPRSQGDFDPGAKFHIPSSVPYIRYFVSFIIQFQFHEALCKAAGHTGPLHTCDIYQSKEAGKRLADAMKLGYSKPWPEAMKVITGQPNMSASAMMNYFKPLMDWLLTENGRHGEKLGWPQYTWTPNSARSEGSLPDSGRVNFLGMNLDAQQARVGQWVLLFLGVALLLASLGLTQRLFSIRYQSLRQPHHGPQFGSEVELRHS
Description: The activity of the compounds of this invention was established by incubation of hippuryl-L-histidyl-L-leucine at 37° C. with angiotensin converting enzyme by the following procedure:
A crude angiotensin converting enzyme supernatant is obtained by blending 1 gm. of rabbit lung acetone powder (PelFreez Biologicals) with 35 ml. of 50 mM (buffered) potassium phosphate, pH 8.3 and centrifuging for 45 min. at 40,000×g.
The specific angiotensin converting enzyme substrate Hippuryl-L-histidyl-L-leucine (HHL-Sigma Chem. Co.) is prepared at 5 mM in 200 mM potassium phosphate buffer containing 757 mM NaCl at pH 8.3.
Incubation for the assay of HHL hydrolysis by angiotensin converting enzyme is carried out in a 37° C. gyrorotary incubator in disposable 13×100 mm tubes. Each 0.25 ml assay mixture contains the following components at the final concentrations: potassium phosphate buffer, 100 mM; NaCl, 300 mM; HHL, 5 mM; and enzyme 0.15 ml (10 mU approx.) added last to initiate the reaction. Zero time controls have 0.25 ml of 2N HCl added before the enzyme. The timed reactions are terminated with acid at 30 min. similarly and the hippuric acid freed from substrate is extracted into 1.5 ml of ethyl acetate layer is transferred to a clean tube. […]
The hippuric acid is resuspended in 1.0 ml of water, the absorbance at […] is determined, and the amount present is calculated from a standard curve. […]

For `NCCCC[C@H](NC(CCc1ccccc1)C(=O)O)C(=O)N(CC(=O)O)c1ccccc1` (mixture of isomers) [Example 2, N^α -(DL-1-carboxy-3-phenylpropyl)-L-lysyl-N-phenylglycine], which “Blood Pressure” value ([1]; 150 mg/kg PO, 1.5 hours) is on record?
The value was 196 mmHg.

And the “Blood Pressure” value ([1]; 150 mg/kg PO, 4 hours)?
Its value is 194 mmHg.

And the “effect on systolic blood pressure (in words)” value [1]?
Its value is “reduce systolic blood pressure”.

What about the IC50 [2] of the same compound?
Its IC50 is 146 nM.

Which results are given for “N^α -(DL-1-carboxy-3-phenylpropyl)-L-lysyl-N-p-methoxyphenylglycine [Example 3]”?
Blood Pressure ([1]; 50 mg/kg PO, 1.5 hours): 183 mmHg; Blood Pressure ([1]; 50 mg/kg PO, 4 hours): 181 mmHg; Blood Pressure ([1]; 50 mg/kg PO, 24 hours): 204 mmHg; effect on systolic blood pressure (in words) [1]: reduce systolic blood pressure
